Reference: EP0531958A1, “6-Aminoquinolones, their synthesis and their use as antibacterial agents” (MEDIOLANUM FARMACEUTICI S.P.A., priority 1991, dated 1993)
In brackets after ≈: the same amount, converted by molar mass. Like-named read-outs stand apart in the source and are kept apart here.

Columns and labels:
Format in all cases: cell-based
[1] = system: Pseudomonas aeruginosa CNUR 2; experiment: MIC test, agar dilution with Steers multiwell inoculator; conditions: CNUR2, TSA dishes, 24 h at 35°C, read-out: Minimum Inhibiting Concentration
Description: (§1) As to the antibacterial activity, there was determined the Least (Minimum) Inhibiting Concentration (MIC), by working according to the following operative conditions.
(§2) There were used suspensions of test germs (5 gram-positive and 15 gram-negative) having a known titre, kept freezed at -80°C and diluted, at the time of use, in peptonized water up to a concentration of 1-2.10⁷ cfu/ml.
(§3) A few mg of the products, according to the invention were weighed sufficient for preparing parent solutions in DMSO + NaOH (1N) containing 2560 µg/ml (64µg/ml/dish). From the thus prepared parent solutions there were prepared 12 serial dilutions (1:2) down to the concentration of 1.25 µg/ml.
(§4) 0.5 ml of the different dilutions of each product were distributed on dishes containing 19.5 ml of agarized medium (TSA), maintained in a fluid state at the temperature of 50°C. After slight stirring, the dishes were made to solidify and dry under hood (laminar flow).
(§5) The MIC tests (Least or "Minimum" Inhibiting Concentration) were performed by using a Steers multiwell inoculator having 36 wells, each containing 200 µl of bacterial suspension.
(§6) After inoculation, the dishes were placed into a thermostat and checked after 24 h of incubation at 35°C.
(§7) The MIC is defined as the lowermost product concentration (µg/ml) inhibiting the visible growth of the microorganisms.

[2] = system: Staphylococcus aureus ATCC 6538; experiment: as above; conditions: ATCC6538, TSA dishes, 24 h at 35°C, read-out: Minimum Inhibiting Concentration
Description: as §1, §2, §3, §4, §5, §6, §7

Escherichia coli CNUR 8 = experiment: as above; conditions: CNUR8, TSA dishes, 24 h at 35°C, read-out: Minimum Inhibiting Concentration
Description: as §1, §2, §3, §4, §5, §6, §7

[3] = system: Pseudomonas aeruginosa ATCC 9027; experiment: as above; conditions: ATCC9027, TSA dishes, 24 h at 35°C, read-out: Minimum Inhibiting Concentration
Description: as §1, §2, §3, §4, §5, §6, §7

Escherichia coli 120 = experiment: as above; conditions: TSA dishes, 24 h at 35°C, read-out: Minimum Inhibiting Concentration
Description: as §1, §2, §3, §4, §5, §6, §7

[4] = system: Enterobacter cloacae OMNF 1153; experiment: as above; conditions: OMNF1153, TSA dishes, 24 h at 35°C, read-out: Minimum Inhibiting Concentration
Description: as §1, §2, §3, §4, §5, §6, §7

[5] = system: Staphylococcus epidermidis HCF Berset C.; experiment: as above; conditions: TSA dishes, 24 h at 35°C, read-out: Minimum Inhibiting Concentration
Description: as §1, §2, §3, §4, §5, §6, §7

[6] = system: Staphylococcus aureus MPR 5; experiment: as above; conditions: MPR5, TSA dishes, 24 h at 35°C, read-out: Minimum Inhibiting Concentration
Description: as §1, §2, §3, §4, §5, §6, §7

Shighella enteritidis = experiment: as above; conditions: TSA dishes, 24 h at 35°C, read-out: Minimum Inhibiting Concentration
Description: as §1, §2, §3, §4, §5, §6, §7

[7] = system: Staphylococcus epidermidis CPHL A2; experiment: as above; conditions: CPHLA2, TSA dishes, 24 h at 35°C, read-out: Minimum Inhibiting Concentration
Description: as §1, §2, §3, §4, §5, §6, §7

Escherichia coli CNUR 1 = experiment: as above; conditions: CNUR1, TSA dishes, 24 h at 35°C, read-out: Minimum Inhibiting Concentration
Description: as §1, §2, §3, §4, §5, §6, §7

Escherichia coli ISF 432 = experiment: as above; conditions: ISF432, TSA dishes, 24 h at 35°C, read-out: Minimum Inhibiting Concentration
Description: as §1, §2, §3, §4, §5, §6, §7

[8] = system: Streptococcus facealis LEP Br.; experiment: as above; conditions: TSA dishes, 24 h at 35°C, read-out: Minimum Inhibiting Concentration
Description: as §1, §2, §3, §4, §5, §6, §7

[9] = system: Providencia stuardii CNUR 5; experiment: as above; conditions: CNUR5, TSA dishes, 24 h at 35°C, read-out: Minimum Inhibiting Concentration
Description: as §1, §2, §3, §4, §5, §6, §7

[10] = system: Escherichia coli ATCC 8739; experiment: as above; conditions: ATCC8739, TSA dishes, 24 h at 35°C, read-out: Minimum Inhibiting Concentration
Description: as §1, §2, §3, §4, §5, §6, §7

[11] = system: Enterobacter cloacae OMNF 1174; experiment: as above; conditions: OMNF1174, TSA dishes, 24 h at 35°C, read-out: Minimum Inhibiting Concentration
Description: as §1, §2, §3, §4, §5, §6, §7

Proteus vulgaris CNUR 6 = experiment: as above; conditions: CNUR6, TSA dishes, 24 h at 35°C, read-out: Minimum Inhibiting Concentration
Description: as §1, §2, §3, §4, §5, §6, §7

[12] = system: Pseudomonas aeruginosa CNUR 4; experiment: as above; conditions: CNUR4, TSA dishes, 24 h at 35°C, read-out: Minimum Inhibiting Concentration
Description: as §1, §2, §3, §4, §5, §6, §7

[13] = system: Acinebacter calcoloaceticus OSMPV 1130; experiment: as above; conditions: TSA dishes, 24 h at 35°C, read-out: Minimum Inhibiting Concentration
Description: as §1, §2, §3, §4, §5, §6, §7

[14] = system: Klebsiella pneumoniae ATCC 10031; experiment: as above; conditions: ATCC10031, TSA dishes, 24 h at 35°C, read-out: Minimum Inhibiting Concentration
Description: as §1, §2, §3, §4, §5, §6, §7

Gram - = experiment: MIC test, average over the 15 gram-negative test germs; conditions: 24 h
Description: as §1, §2, §3, §4, §5, §6, §7

Gram + = experiment: MIC test, average over the 5 gram-positive test germs; conditions: 24 h
Description: as §1, §2, §3, §4, §5, §6, §7

[15] = geometrical average of the MIC over the 15 Gram - strains, read-out: Geometrical Average
[16] = mean log of the MIC over the 15 Gram - strains, read-out: Log (converted)
[17] = geometrical average of the MIC over the 5 Gram + strains, read-out: Geometrical Average

SMILES | MIC [1] [µg/mL] | MIC [2] [µg/mL] | MIC (Escherichia coli CNUR 8) [µg/mL] | MIC [3] [µg/mL] | MIC (Escherichia coli 120) [µg/mL] | MIC [4] [µg/mL] | MIC [5] [µg/mL] | MIC [6] [µg/mL] | MIC (Shighella enteritidis) [µg/mL] | MIC [7] [µg/mL] | MIC (Escherichia coli CNUR 1) [µg/mL] | MIC (Escherichia coli ISF 432) [µg/mL] | MIC [8] [µg/mL] | MIC [9] [µg/mL] | MIC [10] [µg/mL] | MIC [11] [µg/mL] | MIC (Proteus vulgaris CNUR 6) [µg/mL] | MIC [12] [µg/mL] | MIC [13] [µg/mL] | MIC [14] [µg/mL] | other results
CC(C)(C)n1cc(C(=O)O)c(=O)c2cc(N)c(N3CCN(c4ccccn4)CC3)cc21 [Compound 48, 6-amino-1-terbutyl-7-[4-(2-pyridyl)-1-piperazinyl]-1,4-dihydro-4-oxo-quinoline carboxylic acid] | 128 (≈ 304 µM) | 1 (≈ 2.37 µM) | 16 (≈ 38 µM) | 128 (≈ 304 µM) | 16 (≈ 38 µM) | 128 (≈ 304 µM) | 2 (≈ 4.74 µM) | 1 (≈ 2.37 µM) | 64 (≈ 152 µM) | 1 (≈ 2.37 µM) | 64 (≈ 152 µM) | 0.5 (≈ 1.19 µM) | 16 (≈ 38 µM) | 128 (≈ 304 µM) | 0.5 (≈ 1.19 µM) | 64 (≈ 152 µM) | 128 (≈ 304 µM) | 128 (≈ 304 µM) | 1 (≈ 2.37 µM) | 0.25 (≈ 0.593 µM) | MIC (Gram -; [15]): 19.2 µg/mL (≈ 45.7 µM); MIC (Gram -; [16]): 19.2 µg/mL (≈ 45.6 µM); MIC (Gram +; [17]): 2 µg/mL; MIC (Gram +; read-out: Log (converted)): 2 µg/mL (≈ 4.74 µM)
CN1CCN(c2cc3c(cc2N)c(=O)c(C(=O)O)cn3-c2ccc(F)cc2)CC1 [Compound 50] | 32 (≈ 80.7 µM) | 8 (≈ 20.2 µM) | 0.5 (≈ 1.26 µM) | 8 (≈ 20.2 µM) | 0.5 (≈ 1.26 µM) | 4 (≈ 10.1 µM) | 8 (≈ 20.2 µM) | 4 (≈ 10.1 µM) | 4 (≈ 10.1 µM) | 8 (≈ 20.2 µM) | 4 (≈ 10.1 µM) | 0.25 (≈ 0.631 µM) | 64 (≈ 161 µM) | 4 (≈ 10.1 µM) | 0.25 (≈ 0.631 µM) | 4 (≈ 10.1 µM) | 128 (≈ 323 µM) | 128 (≈ 323 µM) | 16 (≈ 40.4 µM) | 0.12 (≈ 0.303 µM) | MIC (Gram -; [15]): 3.47 µg/mL (≈ 8.76 µM); MIC (Gram -; [16]): 3.48 µg/mL (≈ 8.77 µM); MIC (Gram +; [17]): 10.6 µg/mL; MIC (Gram +; read-out: Log (converted)): 10.5 µg/mL (≈ 26.6 µM)
CN1CCN(c2c(F)cc3c(=O)c(C(=O)O)cn4c3c2SCC4)CC1 [RUFLOXACIN, reference compound] | 32 (≈ 88.1 µM) | 0.5 (≈ 1.38 µM) | 0.5 (≈ 1.38 µM) | 8 (≈ 22 µM) | 0.25 (≈ 0.688 µM) | 1 (≈ 2.75 µM) | 2 (≈ 5.5 µM) | 1 (≈ 2.75 µM) | 0.5 (≈ 1.38 µM) | 1 (≈ 2.75 µM) | 0.5 (≈ 1.38 µM) | 0.06 (≈ 0.165 µM) | 8 (≈ 22 µM) | 2 (≈ 5.5 µM) | 0.5 (≈ 1.38 µM) | 0.5 (≈ 1.38 µM) | 16 (≈ 44 µM) | 64 (≈ 176 µM) | 2 (≈ 5.5 µM) | 0.12 (≈ 0.33 µM) | MIC (Gram -; [15]): 1.31 µg/mL (≈ 3.61 µM); MIC (Gram -; [16]): 1.31 µg/mL (≈ 3.61 µM); MIC (Gram +; [17]): 1.51 µg/mL; MIC (Gram +; read-out: Log (converted)): 1.52 µg/mL (≈ 4.17 µM)
